Measured values: patent US11542311B2, “Fusion protein, preparation method therefor and application thereof in preparing ophthalmic disease treatment, anti-inflammation and anti-tumor medicament” (JIANGSU RONGTAI BIOTECH CO., LTD., priority 2017, dated 2023)

Assays:
[1] = system: xylene-induced ear swelling in mice; assay: Xylene-induced ear swelling in mice; type: in vivo, Kunming mice; conditions: 200 mg/kg
Method: 80 Kunming mice were divided into 8 groups with 10 mice for each group and numbered. A physiological saline group was used as a blank control group, an aspirin group (200 mg/kg) was used as a positive control group, and fusion proteins I and II at high, medium and low doses (128, 32, 8 mg/kg) was used as the experimental groups. Mice were administered once by injection every 5 days. The blank control group was given an equal volume of physiological saline. On the fifth day after the administration, 0.05 mL of xylene was applied to both sides of the right ears of the mice to induce inflammation, and the left ears were not applied and were normal ears. After 2 h, the mice were sacrificed by dislocation, and the ears were cut along the auricle. Ear pieces were taken with a puncher and weighed, and the swelling degree and swelling rate were calculated. Swelling degree=right ear piece weight-left ear piece weight, swelling rate=(swelling degree/left ear piece weight)×100%.

[2] = system: melanoma cell B16F10; assay: MTT assay, proliferation of melanoma cell B16F10; type: cell-based; conditions: 5 μg/mL, 48 h
Method: (§1) The MTT assay was used to detect the inhibitory effect of the integrin blocker fusion protein obtained in Example 1 on the proliferation of various tumor cells, including melanoma cell B16F10, gastric cancer cell MGC-803, lung cancer cell A549, liver cancer cell Hep-G2, breast cancer cell MDA-MB-231, colon cancer cell HCT-116, human glioma U87, and cervical cancer cell Hela.
(§2) The tumor cells were cultured in a 5% CO2 incubator at 37° C. to a density of 90% or more, and collected by trypsinization. The cells were resuspended in the culture liquid and counted under a microscope. The cell concentration was adjusted to 3.0×10^4 cells/mL. The cell suspension was inoculated into a 96-well plate, 100 μL per well, and cultured overnight in a 5% CO2 incubator at 37° C. The fusion proteins I, II, and the positive drug Taxol were diluted with the culture liquid to respective predetermined concentrations. After the cells were fully adhered, each dilution was added to a 96-well plate, 100 μL per well, respectively. […] The absorbance was measured at 570 nm with a microplate reader with a reference wavelength of 630 nm, and the proliferation inhibition (PI) was calculated. […]
(§3) The test was repeated 5 times independently. The results obtained from the test were calculated as mean±SD, and statistical t-test was performed. […]

[3] = system: gastric cancer cell MGC-803; assay: MTT assay, proliferation of gastric cancer cell MGC-803; type: cell-based; conditions: 5 μg/mL, 48 h
Method: as §1, §2, §3

[4] = system: lung cancer cell A549; assay: MTT assay, proliferation of lung cancer cell A549; type: cell-based; conditions: 5 μg/mL, 48 h
Method: as §1, §2, §3

[5] = system: liver cancer cell Hep-G2; assay: MTT assay, proliferation of liver cancer cell Hep-G2; type: cell-based; conditions: 5 μg/mL, 48 h
Method: as §1, §2, §3

[6] = system: breast cancer cell MDA-MB-231; assay: MTT assay, proliferation of breast cancer cell MDA-MB-231; type: cell-based; conditions: 5 μg/mL, 48 h
Method: as §1, §2, §3

[7] = system: colon cancer cell HCT-116; assay: MTT assay, proliferation of colon cancer cell HCT-116; type: cell-based; conditions: 5 μg/mL, 48 h
Method: as §1, §2, §3

[8] = system: human glioma U87; assay: MTT assay, proliferation of human glioma U87; type: cell-based; conditions: 5 μg/mL, 48 h
Method: as §1, §2, §3

[9] = system: cervical cancer cell Hela; assay: MTT assay, proliferation of cervical cancer cell Hela; type: cell-based; conditions: 5 μg/mL, 48 h
Method: as §1, §2, §3

[10] = system: Human umbilical vein endothelial cells (HUVECs); assay: Three-dimensional transwell assay, migration of HUVEC; type: cell-based; conditions: 8.0 · 10^−6 μg/mL, 24 h
Method: (1) 10 mg/mL Matrigel (a basement membrane matrix secreted by Engelbreth-Holm-Swarm (EHS) mouse sarcoma cells) diluted with a DMEM medium (Dulbecco's Modified Eagle Medium) at a ratio of 1:4, coated on a transwell chamber membrane, and air-dried at room temperature;
(2) HUVEC cells cultured to logarithmic phase were digested with 0.2% EDTA, collected, washed twice with PBS, followed by resuspended in an endothelial cell culture liquid containing 0.1% BSA, and counted under a microscope, and the cell concentration was adjusted to 1×10^5 cells/mL;
(3) Test solutions for each group were formulated and diluted to 100 μL with a cell culture liquid containing 0.1% BSA;
(4) The cells were inoculated into a transwell chamber, 100 μL per well, and test solutions for each group were added to the chamber. To a 24-well plate, 0.6 mL of endothelial cell culture liquid containing 5% fetal bovine serum and 1×ECGS was added to stimulate cell migration, and incubated at 5% CO2 at 37° C. for 24 h;
(5) The culture liquid in the well was discarded. […] The migration inhibition (MI) was calculated according to the formula: […]
The test was repeated 3 times independently. The results obtained from the test were calculated as mean±SD, and statistical t-test was performed. […]

[11] = system: adjuvant arthritis in rat; assay: Chronic inflammation of adjuvant arthritis in rat; type: in vivo, SD rats; conditions: 1 mg/kg once every 5 days for 15 days
Method: 80 SPF SD rats were randomly divided into 8 groups. Rats in each group were lightly anesthetized with ether. Then, 0.1 mL of complete Freund's adjuvant containing inactivated Mycobacterium tuberculosis was injected subcutaneously into the left hind foot of the rats. Primary arthritis occurred in the left hind foot of the rat, and at about 13 days post-modeling, secondary arthritis occurred in the right hind foot. A blank control group was injected with an equal volume of physiological saline. The drug was administered 13 days after modeling.
Using a foot volume measuring method, a marker was made with a fat-soluble marker at the left and right posterior ankle joints of each rat, and the left and right hind feet of the animal were respectively immersed in the volume measuring device. The immersion depth was bounded by the marker, and the reading value at the scale pipette of the device was the initial volume of the animal's left and right hind feet.
The day of modeling was considered as the 0th day and recorded as d0. The volume of the left hind foot (modeling foot) was measured from the first day dl after modeling every 2 days. When the swelling occurred (i.e., secondary arthritis occurred) at the contralateral non-inflammatory foot (right hind foot), the administration was started. The volume of the left and right hind feet was measured once every 2 days, and the degree of primary and secondary toe swelling was determined, which was calculated as follows: Primary toe swelling (mL)=left hind foot volume on the day of measurement−initial volume of left hind foot Secondary toe swelling (mL)=right hind foot volume on the day of measurement−initial volume of right hind foot
Systemic score: the systemic score was taken every 2 days after the onset of secondary inflammation.
Hind foot: no swelling=0 score, one hind foot swelling=1 score, two hind feet swelling=2 scores;
Forefoot: no swelling=0 score, one forefoot swelling=1 score, two forefeet swelling=2 scores;
Ears: no redness and nodules=0 score, redness or nodules in one ear=1 score, redness and nodules in both ears=2 scores;
Nose: no swelling=0 score, obvious swelling=1 score;
Tail: no nodules=0 score, nodules=1 score; full score was 8 scores.
Arthritis index score: the arthritis index score was performed every 2 days after the onset of secondary inflammation.
The initial body weight of each group of rats was weighed before modeling. The body weight was measured every 2 days from dl after modeling, from which the initial body weight was subtracted to obtain the weight gain of each group of rats.

CC(=O)Oc1ccccc1C(=O)O [Aspirin, aspirin, reference compound]
PI (%) ([1]; ear swelling, mice): 53.15% | Swelling degree ([1]; mouse ear, 2 h after xylene): 3.12 ± 0.61 mg

CC(=O)O[C@H]1C(=O)[C@@]2(C)[C@H]([C@H](OC(=O)c3ccccc3)[C@]3(O)C[C@H](OC(=O)[C@H](O)[C@@H](NC(=O)c4ccccc4)c4ccccc4)C(C)=C1C3(C)C)[C@]1(OC(C)=O)CO[C@@H]1C[C@@H]2O [Taxol, reference compound]
A570 nm/A630 nm [2]: 0.6011 ± 0.0144 | PI (%) [2]: 52.13% | A570 nm/A630 nm [3]: 0.4146 ± 0.0186 | PI (%) [3]: 56.60% | A570 nm/A630 nm [4]: 0.3226 ± 0.0309 | PI (%) [4]: 52.17% | A570 nm/A630 nm [5]: 0.4257 ± 0.0099 | PI (%) [5]: 58.55% | A570 nm/A630 nm [6]: 0.4071 ± 0.0301 | PI (%) [6]: 52.83% | A570 nm/A630 nm [7]: 0.2098 ± 0.0164 | PI (%) [7]: 69.16% | A570 nm/A630 nm [8]: 0.1825 ± 0.0163 | PI (%) [8]: 76.38% | A570 nm/A630 nm [9]: 0.2078 ± 0.0162 | PI (%) [9]: 83.75%

CCN(CC)CCNC(=O)c1c(C)[nH]c(/C=C2\C(=O)Nc3ccc(F)cc32)c1C [Sunitinib, reference compound]
MI (%) [10]: 82.31% | Migration cell number [10]: 441.0 ± 150.58

CN(Cc1cnc2nc(N)nc(N)c2n1)c1ccc(C(=O)N[C@@H](CCC(=O)O)C(=O)O)cc1 [Methotrexate, methotrexate, reference compound]
Clinical score Arthritis index [11]: 2.96 ± 0.57 | Clinical score Whole body [11]: 1.34 ± 0.19 | Foot swelling degree (mL) Left [11]: 1.22 ± 0.21 mL | Foot swelling degree (mL) Right [11]: 1.25 ± 0.13 mL | Weight gain [11]: 47.35 ± 17.40 g
